Source: patent publication US20070025930A1, “Dibenzoilmethane derivative compounds, the use thereof in the form of photoactivable solar filters and cosmetic compositions containing said compounds” (UNIVERSITE PAUL SABATIER TOULOUSE 3, priority 2003, published 2007)

Legend:
[1] = Tests of stability towards UV radiation: water-in-oil preparation on a quartz slide, UVA absorbance monitored under solar irradiation; assay type: physicochemical; conditions: for photostability compared with Parsol 1789: solar irradiation of preparations; for Variation in the absorbance at 356 nm: water-in-oil preparation on quartz slide; for decrease in UVA absorbance: preparation with 1% by mass of screening agents; for decrease of the absorbance at 356 nm: mean UV flux 4 mW/cm^2
Description: By way of example, the changes under irradiation of a base preparation (water-in-oil emulsion) containing the compounds obtained in the above examples, i.e. compound C10 and compound O10, are compared with that of the same preparation containing Parsol 1789 (mass % equivalent for each screening agent).
By way of example, the chosen preparations may be composed as follows:
Glycasil L 0.19%, butyl paraben 0.3%, beeswax 4%, PEG-30 dipolyhydroxystearate 3%, dicapryl carbonate 10%, polyglyceryl-3-diisostearate 1.5%, water 78.64%, xanthan gum 1%, Na2EDTA 0.2%, NaCI 1%; methyl paraben 0.17%
To this common base is added, depending on the case, the compounds C10 or O10 or Parsol 1789 in equivalent mass %. 15 to 20 mg of these preparations are spread onto a quartz slide and the UVA absorbance of the slide is monitored over time under solar irradiation (in the month of June at 43° latitude north between 13.00 h and 16.00 h, mean flux of the solar UV radiation: 4 mW/cm^2, Oriel 70380 UV Radiometer—response between 280 nm and 400 nm with a maximum at 370 nm)). The absorbance at 356 nm of the plate with Parsol 1789 decreases by 51% in 1 hour and by 73% in 2 hours. In the same time, the plates that received compound O10 have an absorbance that increases by 16% in 1 hour and 19% in 2 hours. […]

[2] = background statement on the reference screening agent; cited from earlier work
[3] = UV absorption (absorption maximum, molar extinction coefficient) in solution; assay type: physicochemical
Description: As an illustration of these ultraviolet-absorbing capacities, measurements were taken for two dibenzoylmethane derivatives according to the invention: • for a compound of formula (I) in which R1, R′1, R2, R′2, R3, R′3, R4, R′4 and R′5 each represent a hydrogen atom and R5 represents a saturated linear acyclic carbon-based chain containing 10 carbon atoms, the absorption maximum is (in solution in acetonitrile) at 263 nm with a molar extinction coefficient of 20 000 I.cm^−1.mol^−1. This compound will be referred to hereinbelow as compound C10; • for a compound of formula (I) in which R1, R′1, R2, R′2, R3, R′3, R4, R′4 and R5 each represent a hydrogen atom and R′5 represents a saturated linear acyclic carbon-based chain containing 10 carbon atoms, the absorption maximum (in solution in acetonitrile) is at 302 nm with a molar extinction coefficient of 17 000 I.cm^−1.mol^−1.
This is likewise the case for compound C10. Furthermore, in organized medium, these two compounds, subjected to ultraviolet radiation, undergo a shift of their maximum absorbance wavelength from UVB to UVA, thus causing the same effect as organization of the system. As a result, the maximum shift of the absorption bands towards UVA is obtained by placing these compounds in organized medium under irradiation, as is the case for an antisun cosmetic preparation under the normal conditions of its use. Irradiation of the preparation amplifies the phenomenon induced by the medium in which the compounds are present. There are therefore two screening molecules present, the absorbing power of which appears in its entirety only when they are subjected to ultraviolet exposure, in an organized medium. The protection capacity of a preparation containing them should thus increase during exposure, rather than decrease, which is the case for preparations containing Parsol 1789 as sole UV-screening agent. This increase in the absorbance at the start of exposure makes it possible to maintain a maximum level of protection for longer.
The NMR spectra were acquired using a Bruker ARX 400 MHz machine. […]

SMILES | photostability compared with Parsol 1789 [1] | Variation in the absorbance at 356 nm ([1]; Irradiation 1 hour solar UV) | Variation in the absorbance at 356 nm ([1]; Irradiation 2 hours solar UV) | decrease in UVA absorbance ([1]; after 2 hours solar irradiation) [%] | decrease of the absorbance at 356 nm ([1]; in 1 hour solar irradiation) [%] | decrease in UVA absorbance ([1]; in 1 hour solar irradiation) [%] | decrease of the absorbance at 356 nm ([1]; in 2 hours solar irradiation) [%] | maximum absorption efficacy (wavelength) [2] | absorption maximum ([3]; in solution in acetonitrile) [nm] | molar extinction coefficient ([3]; in solution in acetonitrile, at the absorption maximum) | absorption maximum in the UVA range (solvatochromy) ([3]; organized solvents, e.g. micellar solutions of sodium dodecyl sulfate) | absorbance after 2 hours of exposure to sunlight versus initial absorbance ([1]; 2 hours of solar irradiation, compared with before irradiation) | absorbance change during the first hour of exposure to sunlight ([1]; first hour of solar irradiation) | decrease of the absorbance during the second hour ([1]; relative to the maximum achieved after 1 hour of irradiation) [%]
CCCCCCCCCCO/C(=C\C(=O)c1ccc(OC)cc1)c1ccc(C(C)(C)C)cc1 [compound O10, 3-(4-tert-butylphenyl)-3-decanoxy-1-(4-methoxy-phenyl) prop-2-ene-1-one] | much more photostable than Parsol 1789 |  |  |  |  |  |  |  |  |  |  |  |  | 
COc1ccc(C(=O)CC(=O)c2ccc(C(C)(C)C)cc2)cc1 [Parsol 1789, 4-tert-butyl-4′-methoxydibenzoylmethane, reference compound] |  | −51% | −73% | 73 | 51 | 51 | 73 | about 340 nm |  |  |  |  |  | 
CCCCCCCCCCC(C(=O)c1ccc(OC)cc1)C(=O)c1ccc(C(C)(C)C)cc1 (centres unmarked) [compound C10, 3-(4-tert-butylphenyl)-2-decanyl-1-(4-methoxyphenyl)propane-1,3-dione] | much more photostable than Parsol 1789 | +400% | +264% |  |  |  |  |  | 263 | 20 000 I.cm^−1.mol^−1 | about 360 nm | remains markedly higher than its initial absorbance | increases greatly | 27
